2 compounds from patent US5925369A, “Bis alkanoyl esters of carnitine having bactericidal, fungicidal and antiprotozoal activity” (priority 1996, dated 1999) can be followed below.

The test system of one experiment is Trichomonas vaginalis. In words: MIC on protozoa (Trichomonas vaginalis). It counts as cell-based. The following applies: Metronidazole resistant strains T. vaginalis SS-20 and SS-22 (25 and 50). The procedure:
Protozoal suspensions are prepared from 24-hour cultures grown at 37° C. and 5% CO2 in DIAMOND T.Y.M. broth supplemented with 10% heat-inactivated FCS.
The suspensions are adjusted, in the same medium, to a final concentration of 2.5×10^5 cells/ml in each well of a 96-well microtiter plate. Substance dilutions (0.3 log) are added to the suspensions in order to have a range of final concentrations from 0.19 to 100 mcg/ml. Microtiters are then incubated at 37° C. and 5% CO2 for 24 hours. MIC is referred to as the minimal concentration inhibiting either protozoa or flagella or undulating membrane motility (Cf. JULIANO C., MARTINOTTI M. G., […] P., In vitro effect of microtubule inhibitors on T. vaginalis, Microbiologia, 8:31-42, 1985. LOVGREN T. and SALMELA I., Invitro sensitivity of T. vaginalis and C. albicans to chemotherapeutic agents, Acta Path. Microbiol. Scand.. 86:155-158, 1978).

For experiment [1], the system named is T. mentagrophytes IDI D1049. In words: Antifungal activity in experimental Tinea pedis in the guinea-pig paw. The experiment is classed as in vivo, Hartley guinea-pig. The following applies: for A (clinical sign score) / D (clinical sign score) / E (clinical sign score): scale 0-3. From the text:
Twelve male Hartley guinea-pig (C. RIVER), weighing 350-400 gr, have been utilized (3 animals per experimental group).
One clinical isolate (Tricophyton mentagrophytes IDI D 1049, from Immacolata Dermatological Institute of Rome) was utilized.
Microaleuriospores were first harvested by scraping from a 7-day fungal culture grown in Potato dextrose agar, and then resuspended in Sabouraud broth with 0.5% Tween 80.
After washing, the spores were standardized in sterile saline to yield a final concentration of 1.0×10^8 spores/ml.
Each group included 3 animals, and only the left hind paw was inoculated. For the 2 control groups, 3 animals in total were used, as both hind paws of each animal were inoculated.
Filter paper discs (12-mm diameter and 0.3-mm thickness) were covered with aluminum foil in the lower part to prevent the inoculum spreading. This filter was then sticked to a 1×3-cm piece of biadesive plaster, which adhered to a gauze wrapped around the paw.
The filter paper disc was then wetted with 100 μl of the infective suspension, and subsequently fixed to the guinea-pig paw.
The animal paw was tied up with bandage and plaster, and then left in these conditions for 7 days.
Seven days after infection, the infected areas were uncovered and the type of lesion was graded according to an arbitrary scale, as follows:
These "clinical" signs were examined again on days +14, +21, and +31 (day of sacrifice of animals). Three days following the first observation of the type of lesion (day +10), treatments with the differrent formulations were started, and they went on for 20 days (once a day). Two days following the last treatment (day +31), animals were sacrificed and plantar areas of the paws were dissected into 10 parts for each paw.
These sections were plated onto Mycobiotic agar supplemented with Penicillin G and Streptomicin (100 mcg/ml). Volumes of 50 μl of both antibiotics were then added to the plantar sections to prevent any bacterial growth that might interfere with the growth of T. mentagrophytes in the samples under examination.
The data obtained were expressed as the number of microbiologically sterile cutaneous sections over the total examined sections.

Setting [2] is: 1.5%, 20 days once a day, day +31.

The term MIC denotes the lowest concentration found to suppress growth. With `Cc1ncc([N+](=O)[O-])n1CCO` [Metronidazole], the “MIC of Metronidazole” value in the experiment on Trichomonas vaginalis worked out at 50 µg/mL. In the experiment with Trichomonas vaginalis (Trichomonas vaginalis, 24 h, read-out: MIC of Metronidazole), the MIC stood at 25 µg/mL.

On to `Clc1ccc(COC(Cn2ccnc2)c2ccc(Cl)cc2Cl)c(Cl)c1` (centres unmarked) [Miconazole, reference compound], for which the eradication of infection entry in experiment [1] (1.5% Miconazole) is given as “capable of eradicating infection from all treated samples”. Moreover, the “A (clinical sign score)” value in experiment [1] (1.5%, 7th day) amounted to 0; in experiment [1] (1.5%, 14th day), 0; in experiment [1] (1.5%, 21st day), 0; in experiment [1] (1.5%, 31st day) it was 0. The “D (clinical sign score)” value in experiment [1] (1.5%, 7th day) came out at 0; in experiment [1] (1.5%, 14th day) it was 0; in experiment [1] (1.5%, 21st day), 0; in experiment [1] (1.5%, 31st day) it was 0. Besides, the “E (clinical sign score)” value is 0 in experiment [1] (1.5%, 7th day); 0 in experiment [1] (1.5%, 14th day); 0 in experiment [1] (1.5%, 21st day); 0 in experiment [1] (1.5%, 31st day). Besides, the “sterile samples (%)” value in experiment [1] (setting [2]) is on record as 100%. Moreover, the “sterile samples (n = 30), number over total” value in experiment [1] (setting [2]) is reported as 30/30.
